In article PMC2834277 (Nature structural & molecular biology, 2010):

Key:
PurR-C [1] = target: T1, PurR-C (Escherichia coli, UniProt P0ACP7); experiment: Sepharose resin pull-down, competition with free nucleotide; format: binding; details: 500 uM nucleotide, PBS, 5 mM MgCl2, 4 C; data not shown
T1 sequence (P0ACP7 60-341 limits assumed): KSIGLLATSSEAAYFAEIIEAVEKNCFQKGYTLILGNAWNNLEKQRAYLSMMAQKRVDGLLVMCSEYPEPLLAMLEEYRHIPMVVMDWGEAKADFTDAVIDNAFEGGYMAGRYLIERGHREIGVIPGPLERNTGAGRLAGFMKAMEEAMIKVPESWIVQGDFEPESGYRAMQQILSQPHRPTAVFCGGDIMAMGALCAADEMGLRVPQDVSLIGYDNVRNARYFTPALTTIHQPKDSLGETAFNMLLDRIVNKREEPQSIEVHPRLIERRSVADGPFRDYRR

DmAgo2-MID [2] = target: T2, DmAgo2-MID (Drosophila melanogaster, UniProt Q9VUQ5); experiment: m7GTP-Sepharose pull-down, competition with free nucleotide; format: binding; details: 500 uM GTP, PBS, 5 mM MgCl2, 4 C; competitive
T2 sequence (Q9VUQ5 740-884 limits assumed): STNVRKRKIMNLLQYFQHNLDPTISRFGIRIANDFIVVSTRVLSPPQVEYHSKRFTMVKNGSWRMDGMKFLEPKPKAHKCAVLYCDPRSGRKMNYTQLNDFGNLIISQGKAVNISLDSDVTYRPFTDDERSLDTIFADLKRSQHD

DmAgo2ΔQ [3] = target: T3, DmAgo2ΔQ (Drosophila melanogaster, UniProt Q9VUQ5); experiment: resin pull-down, GTP-Sepharose; format: binding; details: ligand immobilised on Sepharose; competed by miRNA; PBS, MgCl2, 4 C
T3 sequence (Q9VUQ5 400-1214 limits assumed): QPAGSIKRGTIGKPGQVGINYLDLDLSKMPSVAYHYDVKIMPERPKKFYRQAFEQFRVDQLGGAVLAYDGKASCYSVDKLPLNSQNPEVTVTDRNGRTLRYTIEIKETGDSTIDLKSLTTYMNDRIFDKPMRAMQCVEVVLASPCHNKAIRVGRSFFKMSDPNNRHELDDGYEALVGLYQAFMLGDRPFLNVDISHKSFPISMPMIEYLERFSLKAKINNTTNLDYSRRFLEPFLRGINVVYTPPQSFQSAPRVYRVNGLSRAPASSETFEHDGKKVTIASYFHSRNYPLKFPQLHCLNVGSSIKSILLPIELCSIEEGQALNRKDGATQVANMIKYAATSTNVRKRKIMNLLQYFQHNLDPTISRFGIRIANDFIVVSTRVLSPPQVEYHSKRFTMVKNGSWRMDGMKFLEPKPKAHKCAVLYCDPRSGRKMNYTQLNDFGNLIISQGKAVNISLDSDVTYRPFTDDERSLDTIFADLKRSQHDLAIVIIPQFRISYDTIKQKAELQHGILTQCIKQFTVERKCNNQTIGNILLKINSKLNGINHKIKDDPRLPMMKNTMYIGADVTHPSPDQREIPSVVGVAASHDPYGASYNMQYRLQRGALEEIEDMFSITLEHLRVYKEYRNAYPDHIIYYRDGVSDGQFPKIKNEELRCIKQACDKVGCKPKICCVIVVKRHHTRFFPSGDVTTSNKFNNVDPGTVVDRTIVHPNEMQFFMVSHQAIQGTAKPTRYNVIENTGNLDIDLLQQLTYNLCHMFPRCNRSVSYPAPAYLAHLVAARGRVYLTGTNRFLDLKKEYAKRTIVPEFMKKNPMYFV

PurR-C [4] = target: T1, PurR-C; experiment: resin pull-down, m7GTP-Sepharose; format: binding; details: ligand immobilised on Sepharose; PBS, 5 mM MgCl2, 4 C
DmeIF4E = target: T4, DmeIF4E (Drosophila melanogaster, UniProt P48598); experiment: resin pull-down, m7GTP-Sepharose; format: binding; details: ligand immobilised on Sepharose; PBS, 5 mM MgCl2, 4 C
T4 sequence (P48598 1-259): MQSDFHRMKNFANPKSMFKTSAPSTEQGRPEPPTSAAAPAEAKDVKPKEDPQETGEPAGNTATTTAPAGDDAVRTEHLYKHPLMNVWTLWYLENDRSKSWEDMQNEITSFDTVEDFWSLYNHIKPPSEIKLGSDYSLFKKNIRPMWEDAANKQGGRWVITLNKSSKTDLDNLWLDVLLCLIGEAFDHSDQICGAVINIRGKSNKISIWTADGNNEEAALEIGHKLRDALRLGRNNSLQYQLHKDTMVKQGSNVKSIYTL

CeAlg1-MID = CeAlg1-MID (Caenorhabditis elegans, UniProt G5EGR6); experiment: resin pull-down, m7GTP-Sepharose; format: binding; details: ligand immobilised on Sepharose; PBS, 5 mM MgCl2, 4 C
DmAgo2-MID [5] = target: T2, DmAgo2-MID; experiment: resin pull-down, m7GTP-Sepharose; format: binding; details: ligand immobilised on Sepharose; PBS, 5 mM MgCl2, 4 C
DmAgo1-MID = DmAgo1-MID (Drosophila melanogaster, UniProt A1Z9J5); experiment: resin pull-down, m7GTP-Sepharose; format: binding; details: ligand immobilised on Sepharose; PBS, 5 mM MgCl2, 4 C
CeRde1 MID domain = target: T5, CeRde1 MID domain (Caenorhabditis elegans, UniProt G5EEH0); experiment: resin pull-down, m7GTP-Sepharose; format: binding; details: ligand immobilised on Sepharose; PBS, 5 mM MgCl2, 4 C
T5 sequence (G5EEH0 470-618 limits assumed): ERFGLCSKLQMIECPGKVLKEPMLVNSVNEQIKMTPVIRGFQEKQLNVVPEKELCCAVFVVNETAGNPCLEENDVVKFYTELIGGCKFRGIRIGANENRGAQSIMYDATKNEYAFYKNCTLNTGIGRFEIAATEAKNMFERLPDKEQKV

DmAgo2ΔQ [6] = target: T3, DmAgo2ΔQ; experiment: filter binding, competition with […]-bantam miRNA; details: PBS, 5 mM MgCl2, room temperature; 5'-end miRNA site; high concentrations

Sequence of CeAlg1-MID (G5EGR6 540-686 limits assumed): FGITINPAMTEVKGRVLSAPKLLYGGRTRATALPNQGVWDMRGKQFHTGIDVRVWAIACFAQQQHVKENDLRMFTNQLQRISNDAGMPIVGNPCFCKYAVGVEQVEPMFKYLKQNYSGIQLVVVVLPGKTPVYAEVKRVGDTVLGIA
Sequence of DmAgo1-MID (A1Z9J5 538-665): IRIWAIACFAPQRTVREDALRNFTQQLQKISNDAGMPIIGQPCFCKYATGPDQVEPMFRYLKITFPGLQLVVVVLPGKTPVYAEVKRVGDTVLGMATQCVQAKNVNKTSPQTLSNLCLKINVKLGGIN

Nc1nc2c(ncn2[C@@H]2O[C@H](COP(=O)(O)OP(=O)(O)OP(=O)(O)O)[C@@H](O)[C@H]2O)c(=O)[nH]1 [GTP]
Sepharose resin pull-down, competition with free nucleotide (PurR-C [1]): PurR binding to each resin was easily competed by both GTP and m^7GpppG | m7GTP-Sepharose pull-down, competition with free nucleotide (DmAgo2-MID [2]): DmAgo2-MID binding was also readily competed by GTP | resin pull-down, GTP-Sepharose (DmAgo2ΔQ [3]): DmAgo2ΔQ binds poorly to m^7GTP, and better to GTP- and GMP-Sepharose

C[n+]1cn([C@@H]2O[C@H](COP(=O)(O)OP(=O)(O)OP(=O)(O)O)[C@@H](O)[C@H]2O)c2nc(N)[nH]c(=O)c21 [m^7GTP]
resin pull-down, m7GTP-Sepharose (PurR-C [4]): as well as the ligand-binding domain of PurR, were able to bind to both resins | resin pull-down, m7GTP-Sepharose (DmeIF4E): the binding of DmeIF4E to m^7GTP-Sepharose was highly efficient | resin pull-down, m7GTP-Sepharose (CeAlg1-MID): miRNA-related Argonautes (DmAgo1, CeAlg1) consistently bound more effectively to m^7GTP-Sepharose | resin pull-down, m7GTP-Sepharose (DmAgo2-MID [5]): All of the MID domains [...] were able to bind to both resins | resin pull-down, m7GTP-Sepharose (DmAgo1-MID): miRNA-related Argonautes (DmAgo1, CeAlg1) consistently bound more effectively to m^7GTP-Sepharose | resin pull-down, m7GTP-Sepharose (CeRde1 MID domain): All of the MID domains [...] were able to bind to both resins

C[n+]1cn([C@@H]2O[C@H](COP(=O)(O)OP(=O)(O)OP(=O)(O)OC[C@H]3O[C@@H](n4cnc5c(=O)[nH]c(N)nc54)[C@H](O)[C@@H]3O)[C@@H](O)[C@H]2O)c2nc(N)[nH]c(=O)c21 [m^7GpppG]
Sepharose resin pull-down, competition with free nucleotide (PurR-C [1]): PurR binding to each resin was easily competed by both GTP and m^7GpppG

Nc1nc2c(ncn2[C@@H]2O[C@H](COP(=O)(O)O)[C@@H](O)[C@H]2O)c(=O)[nH]1 [GMP]
filter binding, competition with 32P-bantam miRNA (DmAgo2ΔQ [6]): allosteric behavior was not observed for DmAgo2ΔQ, though GMP could compete at high concentrations
